Source: PubChem BioAssay AID1159605 (The Scripps Research Institute Molecular Screening Center, 2016)
pIC50: −log10 of the molar value. Activity calls are given as the source filed them.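 The calls were made as follows: active = IC50 of 10 µM or lower; inactive = IC50 above 10 µM.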

Target: Mitogen-activated protein kinase kinase kinase 5 (Homo sapiens) (UniProt Q99683)
Assay: ASK1 kinase inhibitor potency, dose response, biochemical, AlphaScreen, MKK6 phosphorylation (AID 1159605);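 also: ASK1 phosphorylation of MKK6 substrate detected with anti-phospho-MKK6 antibody beads; inhibitors lower the luminescent signal by blocking MKK6 phosphorylation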
Conditions: AlphaScreen luminescence

Mitogen-activated protein kinase kinase kinase 5 (Homo sapiens), sequence (Q99683 whole entry, looked up): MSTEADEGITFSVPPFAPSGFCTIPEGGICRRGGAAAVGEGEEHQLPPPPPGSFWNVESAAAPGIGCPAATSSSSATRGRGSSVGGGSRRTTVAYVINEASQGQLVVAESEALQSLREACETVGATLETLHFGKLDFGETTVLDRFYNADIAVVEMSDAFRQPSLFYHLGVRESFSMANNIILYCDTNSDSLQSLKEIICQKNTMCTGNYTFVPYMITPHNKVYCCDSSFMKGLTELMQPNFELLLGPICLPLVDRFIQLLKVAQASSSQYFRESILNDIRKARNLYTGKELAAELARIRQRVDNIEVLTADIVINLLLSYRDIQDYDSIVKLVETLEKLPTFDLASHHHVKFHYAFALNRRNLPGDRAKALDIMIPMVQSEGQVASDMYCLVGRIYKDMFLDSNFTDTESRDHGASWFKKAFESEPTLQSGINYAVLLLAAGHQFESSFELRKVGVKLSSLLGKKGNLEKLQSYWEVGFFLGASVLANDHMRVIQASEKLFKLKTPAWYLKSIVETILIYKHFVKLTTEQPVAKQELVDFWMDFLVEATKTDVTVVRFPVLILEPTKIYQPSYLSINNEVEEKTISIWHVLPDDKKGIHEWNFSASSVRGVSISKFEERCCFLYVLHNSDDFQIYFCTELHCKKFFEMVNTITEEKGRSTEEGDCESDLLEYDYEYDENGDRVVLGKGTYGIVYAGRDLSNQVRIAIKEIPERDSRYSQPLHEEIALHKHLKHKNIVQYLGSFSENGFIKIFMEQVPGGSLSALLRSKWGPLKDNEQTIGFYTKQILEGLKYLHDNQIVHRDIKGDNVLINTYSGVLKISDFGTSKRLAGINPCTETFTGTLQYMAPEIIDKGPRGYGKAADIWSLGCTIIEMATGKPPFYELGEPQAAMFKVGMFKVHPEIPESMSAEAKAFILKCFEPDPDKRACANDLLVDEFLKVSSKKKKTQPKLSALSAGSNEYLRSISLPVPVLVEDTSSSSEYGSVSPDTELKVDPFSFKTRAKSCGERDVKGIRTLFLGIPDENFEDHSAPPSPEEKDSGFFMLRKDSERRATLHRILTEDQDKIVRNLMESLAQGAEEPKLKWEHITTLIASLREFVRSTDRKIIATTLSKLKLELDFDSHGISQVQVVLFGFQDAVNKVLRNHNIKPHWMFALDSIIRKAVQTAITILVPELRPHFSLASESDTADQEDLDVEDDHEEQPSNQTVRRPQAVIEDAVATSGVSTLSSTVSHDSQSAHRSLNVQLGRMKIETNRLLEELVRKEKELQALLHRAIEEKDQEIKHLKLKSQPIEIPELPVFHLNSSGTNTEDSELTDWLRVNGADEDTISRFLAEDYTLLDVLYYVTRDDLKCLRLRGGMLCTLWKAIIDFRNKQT

Row | SMILES | IC50 | pIC50
1 | O=c1[nH]cccc1-c1ccc(Nc2nccc(-c3ccc4nc(C5CC5)[nH]c(=O)c4c3)n2)cc1 | > 19.2 µM (inactive) | 
2 | c1ccc(Oc2ccc(Nc3nc(N4CCc5ccccc5C4)nc4c3ncn4-c3ccccc3)cc2)cc1 | > 20 µM (inactive) | 
3 | Cc1cnc(Nc2nc3ccccc3n2C)nc1Nc1ccc(N2CCOCC2)cc1 | > 21.8 µM (inactive) | 
4 | COc1cc2nc(Nc3nccc4ccccc34)nc(Nc3ccc(NC(C)=O)cc3)c2cc1OC | inactive | 
5 | Cc1cc(NC2CCN(Cc3ccccc3)CC2)nc(Nc2cccc(N(C)C)c2)n1 | > 21.2 µM (inactive) | 
6 | Cc1ncn(-c2ccc(Nc3nccc(-c4cc(F)cc(-c5cn[nH]c5C)c4)n3)cc2)n1 | > 19.2 µM (inactive) | 
7 | Cc1cc(NC2CCN(Cc3ccccc3)CC2)nc(Nc2ccc(N3CCOCC3)cc2)n1 | inactive | 
8 | COc1cc2nc(Nc3cc(OC)c(OC)c(OC)c3)nc(Nc3ccc(N4CCOCC4)cc3)c2cc1OC | > 20.3 µM (inactive) | 
9 | CC(C)NC(=O)c1cccc(NC(=O)Nc2ccc(-c3ccnc4[nH]ccc34)cc2)c1 | > 19.2 µM (inactive) | 
10 | CC(C)n1c(-c2ccc(C(N)=O)cc2)nc2c(Nc3ccc(Oc4ccccc4)cc3)ncnc21 | > 20 µM (inactive) | 
11 | Cc1cc(Nc2ccc(N3CCOCC3)cc2)nc(Nc2cccc(N(C)C)c2)n1 | > 19.9 µM (inactive) | 
12 | CN(C)c1cccc(Nc2nc(NCCc3ccc(O)cc3)c3ncn(C4CCCCC4)c3n2)c1 | > 20 µM (inactive) | 
13 | Cc1cccc(Nc2ccc3c(cnn3-c3cccc(C(=O)NCCN4CCNCC4)c3)c2)c1Cl | > 19.2 µM (inactive) | 
14 | CN(C)c1cccc(Nc2nccc(NCc3cccc(C(F)(F)F)c3)n2)c1 | > 16.5 µM (inactive) | 
15 | Cc1nc(C)n(-c2ccc(Nc3nccc(-c4cc(F)cc(-c5ncco5)c4)n3)cc2)n1 | > 19.2 µM (inactive) | 
16 | Cc1cc(Nc2ccc3c(c2)OCO3)nc(N2CCN(Cc3ccc4c(c3)OCO4)CC2)n1 | inactive | 

Row | SMILES | IC50 | pIC50
17 | Fc1ccc(-c2c(-c3ccnc(Nc4ccc(N5CCOCC5)cc4)c3)noc2NCc2ccccc2)cc1 | > 19.2 µM (inactive) | 
18 | FC(F)(F)c1cc(-c2ccnc(Nc3ccc(N4CCOCC4)cc3)n2)cc(N2CCOCC2)c1 | > 19.2 µM (inactive) | 
19 | c1cncc(CNc2nc(Nc3ccc(N4CCOCC4)cc3)nc3c2ncn3C2CCCCC2)c1 | > 20.1 µM (inactive) | 
20 | COc1cc2nc(Nc3cccc(N(C)C)c3)nc(Nc3ccccc3)c2cc1OC | inactive | 
21 | Cc1cc(NCCOc2ccccc2)nc(Nc2cccc(N(C)C)c2)n1 |  | 5.16
22 | OC1CCN(c2ccc(Nc3nccc(-c4cc(F)cc(N5CCN(C6CC6)CC5)c4)n3)cc2)CC1 | > 19.2 µM (inactive) | 
23 | CN1CCN(c2ncn(-c3ccc(Nc4nccc(-c5cc(C#N)cc(N6CCC(O)CC6)c5)n4)cc3)n2)CC1 | > 19.2 µM (inactive) | 
24 | COc1cc(Nc2nc(-c3c(C)noc3C)nc3c2ncn3Cc2ccc(C(F)(F)F)cc2)cc(OC)c1OC | > 27.5 µM (inactive) | 
25 | COc1ccc(-c2nc(C)cc(Nc3ccc(N4CCOCC4)cc3)n2)cc1 |  | 5.04
26 | Cc1ccc(-c2ncn(-c3ccc(Nc4ncc(Cl)c(-c5ccnn5C)n4)cc3)n2)cn1 | > 19.2 µM (inactive) | 
27 | c1ccc(CN2CCC(Nc3nc(Nc4ccc(N5CCOCC5)cc4)nc4nc[nH]c34)CC2)cc1 | > 19.7 µM (inactive) | 
28 | c1ccc(-n2cnc3c(Nc4ccc(N5CCOCC5)cc4)nc(Nc4cccnc4)nc32)cc1 | > 15.9 µM (inactive) | 
29 | c1cc(-n2cnc3c(Nc4ccc(N5CCOCC5)cc4)nc(N4CCN(Cc5ccc6c(c5)OCO6)CC4)nc32)cs1 | inactive | 
30 | CC(C)n1cnc2c(NC3CCN(Cc4ccccc4)CC3)nc(Nc3cccc(N(C)C)c3)nc21 | > 21.5 µM (inactive) | 
31 | c1ccc(OCCNc2nc(Nc3ccc(-n4ccnc4)cc3)nc3c2ncn3C2CCCCC2)cc1 | inactive | 
32 | COc1ccc(CCNc2ccnc(Nc3cccc(N(C)C)c3)n2)cc1 |  | 5.11
